# Data published in patent US12060347B2 (BRISTOL-MYERS SQUIBB COMPANY, priority 2016, dated 2024).
# Biological target: T1, human PAR4 (Homo sapiens, UniProt Q96RI0)
# T1 construct: expressed in transfected cells; host or cells: HEK293 PAR4 Clone 1.2A (BMS Arctic ID 383940)
# T1 sequence (Q96RI0 18-385): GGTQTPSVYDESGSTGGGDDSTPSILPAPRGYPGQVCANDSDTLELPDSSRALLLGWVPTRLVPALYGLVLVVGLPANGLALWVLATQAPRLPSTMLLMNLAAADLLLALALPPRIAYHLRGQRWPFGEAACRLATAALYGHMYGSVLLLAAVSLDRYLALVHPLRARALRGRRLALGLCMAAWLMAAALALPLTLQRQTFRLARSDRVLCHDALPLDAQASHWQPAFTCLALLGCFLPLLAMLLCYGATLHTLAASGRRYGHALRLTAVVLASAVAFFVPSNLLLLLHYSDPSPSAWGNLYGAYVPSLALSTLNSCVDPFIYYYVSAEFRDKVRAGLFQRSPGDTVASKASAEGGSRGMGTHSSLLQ
# Test: PAR4 FLIPR assay: antagonism of agonist-peptide-induced calcium mobilization in PAR4-expressing HEK293 cells
# Format: cell-based
# Conditions: H-Ala-Phe(4-F)-[…]NH2-induced intracellular calcium mobilization, 11-point curves
row,Compound,IC50 [nM]
1,"COc1cnc2c(-c3nc4cc(F)c(O[C@@H](C)[C@@H](C)OC(=O)Nc5ccc6[nH]c(=O)oc6c5)nc4s3)cc(C)cc2n1 [Example 708, (2R,3S)-3-((6-fluoro-2-(2-methoxy-7-methylquinoxalin-5-yl)thiazolo[5,4-b]pyridin-5-yl)oxy)butan-2-yl (2-oxo-2,3-dihydrobenzo[d]oxazol-6-yl)carbamate]",2.6
2,"COc1cnc2c(-c3nc4cc(F)c(O[C@@H](C)[C@@H](C)OC(=O)Nc5cccnc5)nc4s3)cc(C)cc2n1 [Example 709, (2R,3S)-3-((6-fluoro-2-(2-methoxy-7-methylquinoxalin-5-yl)thiazolo[5,4-b]pyridin-5-yl)oxy)butan-2-yl pyridin-3-ylcarbamate]",0.4
3,"COc1cnc2c(-c3nc4cc(F)c(O[C@@H](C)[C@@H](C)OC(=O)Nc5ccc(C)nc5)nc4s3)cc(C)cc2n1 [Example 710, (2R,3S)-3-((6-fluoro-2-(2-methoxy-7-methylquinoxalin-5-yl)thiazolo[5,4-b]pyridin-5-yl)oxy)butan-2-yl (6-methylpyridin-3-yl)carbamate]",1.8
4,"COc1cnc2c(-c3nc4cc(F)c(O[C@@H](C)[C@@H](C)OC(=O)Nc5cnc(OC)nc5)nc4s3)cc(C)cc2n1 [Example 711, (2R,3S)-3-((6-fluoro-2-(2-methoxy-7-methylquinoxalin-5-yl)thiazolo[5,4-b]pyridin-5-yl)oxy)butan-2-yl (2-methoxypyrimidin-5-yl)carbamate]",2.4
5,"COC(=O)c1ncc(NC(=O)O[C@H](C)[C@H](C)Oc2nc3sc(-c4cc(C)cc5nc(OC)cnc45)nc3cc2F)cn1 [Example 712, methyl 5-(((((2R,3S)-3-((6-fluoro-2-(2-methoxy-7-methylquinoxalin-5-yl)thiazolo[5,4-b]pyridin-5-yl)oxy)butan-2-yl)oxy)carbonyl)amino)pyrimidine-2-carboxylate]",3.2
6,"COc1cnc2c(-c3nc4cc(F)c(O[C@@H](C)[C@@H](C)OC(=O)Nc5ccncc5)nc4s3)cc(C)cc2n1 [Example 713, (2R,3S)-3-((6-fluoro-2-(2-methoxy-7-methylquinoxalin-5-yl)thiazolo[5,4-b]pyridin-5-yl)oxy)butan-2-yl pyridin-4-ylcarbamate]",1.8
7,"COc1cnc2c(-c3nc4cc(F)c(O[C@@H](C)[C@@H](C)OC(=O)Nc5cncc(F)c5)nc4s3)cc(C)cc2n1 [Example 714, (2R,3S)-3-((6-fluoro-2-(2-methoxy-7-methylquinoxalin-5-yl)thiazolo[5,4-b]pyridin-5-yl)oxy)butan-2-yl (5-fluoropyridin-3-yl)carbamate]",1.2
8,"COC(=O)c1ccc(NC(=O)O[C@H](C)[C@H](C)Oc2nc3sc(-c4cc(C)cc5nc(OC)cnc45)nc3cc2F)cn1 [Example 715, methyl 5-(((((2R,3S)-3-((6-fluoro-2-(2-methoxy-7-methylquinoxalin-5-yl)thiazolo[5,4-b]pyridin-5-yl)oxy)butan-2-yl)oxy)carbonyl)amino)picolinate]",0.9
9,"COc1cnc2c(-c3nc4cc(F)c(O[C@@H](C)[C@@H](C)OC(=O)Nc5cncnc5)nc4s3)cc(C)cc2n1 [Example 716, (2R,3S)-3-((6-fluoro-2-(2-methoxy-7-methylquinoxalin-5-yl)thiazolo[5,4-b]pyridin-5-yl)oxy)butan-2-yl pyrimidin-5-ylcarbamate]",2
10,"COc1cnc2c(-c3nc4cc(F)c(O[C@@H](C)[C@@H](C)OC(=O)Nc5ccnc(CCO)c5)nc4s3)cc(C)cc2n1 [Example 717, (2R,3S)-3-((6-fluoro-2-(2-methoxy-7-methylquinoxalin-5-yl)thiazolo[5,4-b]pyridin-5-yl)oxy)butan-2-yl (2-(2-hydroxyethyl)pyridin-4-yl)carbamate]",1.6
11,"COc1cnc2c(-c3nc4cc(F)c(O[C@@H](C)[C@@H](C)OC(=O)Nc5ccc(CC(C)(C)O)nc5)nc4s3)cc(C)cc2n1 [Example 718, (2R,3S)-3-((6-fluoro-2-(2-methoxy-7-methylquinoxalin-5-yl)thiazolo[5,4-b]pyridin-5-yl)oxy)butan-2-yl (6-(2-hydroxy-2-methylpropyl)pyridin-3-yl)carbamate]",1.7
12,"COc1cnc2c(-c3nc4cc(F)c(O[C@@H](C)[C@@H](C)OC(=O)Nc5ccnc(OCCO)c5)nc4s3)cc(C)cc2n1 [Example 719, (2R,3S)-3-((6-fluoro-2-(2-methoxy-7-methylquinoxalin-5-yl)thiazolo[5,4-b]pyridin-5-yl)oxy)butan-2-yl (2-(2-hydroxyethoxy)pyridin-4-yl)carbamate]",1.7
13,"COc1cnc2c(-c3nc4cc(F)c(O[C@@H](C)[C@@H](C)OC(=O)Nc5cnc(CCO)nc5)nc4s3)cc(C)cc2n1 [Example 720, (2R,3S)-3-((6-fluoro-2-(2-methoxy-7-methylquinoxalin-5-yl)thiazolo[5,4-b]pyridin-5-yl)oxy)butan-2-yl (2-(2-hydroxyethyl)pyrimidin-5-yl)carbamate]",3.2
14,"COc1cnc2c(-c3nc4cc(F)c(O[C@@H](C)[C@@H](C)OC(=O)Nc5cnc(OCCO)nc5)nc4s3)cc(C)cc2n1 [Example 721, (2R,3S)-3-((6-fluoro-2-(2-methoxy-7-methylquinoxalin-5-yl)thiazolo[5,4-b]pyridin-5-yl)oxy)butan-2-yl (2-(2-hydroxyethoxy)pyrimidin-5-yl)carbamate]",2.6
15,"COc1cnc2c(-c3nc4cc(F)c(O[C@@H](C)[C@@H](C)OC(=O)Nc5cnc(O[C@H](C)CO)nc5)nc4s3)cc(C)cc2n1 [Example 722, (2R,3S)-3-((6-fluoro-2-(2-methoxy-7-methylquinoxalin-5-yl)thiazolo[5,4-b]pyridin-5-yl)oxy)butan-2-yl (2-(((R)-1-hydroxypropan-2-yl)oxy)pyrimidin-5-yl)carbamate]",1.4
16,"COc1cnc2c(-c3nc4cc(F)c(O[C@@H](C)[C@@H](C)OC(=O)Nc5ccnc(CO)c5)nc4s3)cc(C)cc2n1 [Example 723, (2R,3S)-3-((6-fluoro-2-(2-methoxy-7-methylquinoxalin-5-yl)thiazolo[5,4-b]pyridin-5-yl)oxy)butan-2-yl (2-(hydroxymethyl)pyridin-4-yl)carbamate]",2.4
17,"COc1cnc2c(-c3nc4cc(F)c(O[C@@H](C)[C@@H](C)OC(=O)Nc5cnc(O[C@@H](C)CO)nc5)nc4s3)cc(C)cc2n1 [Example 724, (2R,3S)-3-((6-fluoro-2-(2-methoxy-7-methylquinoxalin-5-yl)thiazolo[5,4-b]pyridin-5-yl)oxy)butan-2-yl (2-(((S)-1-hydroxypropan-2-yl)oxy)pyrimidin-5-yl)carbamate]",2.1
18,"COc1cnc2c(-c3nc4cc(F)c(O[C@@H](C)[C@@H](C)OC(=O)Nc5ccc(OCCO)nc5)nc4s3)cc(C)cc2n1 [Example 725, (2R,3S)-3-((6-fluoro-2-(2-methoxy-7-methylquinoxalin-5-yl)thiazolo[5,4-b]pyridin-5-yl)oxy)butan-2-yl (6-(2-hydroxyethoxy)pyridin-3-yl)carbamate]",0.8
19,"COc1cnc2c(-c3nc4cc(F)c(O[C@@H](C)[C@@H](C)OC(=O)Nc5ccc(OCC(F)(F)CO)nc5)nc4s3)cc(C)cc2n1 [Example 726, (2R,3S)-3-((6-fluoro-2-(2-methoxy-7-methylquinoxalin-5-yl)thiazolo[5,4-b]pyridin-5-yl)oxy)butan-2-yl (6-(2,2-difluoro-3-hydroxypropoxy)pyridin-3-yl)carbamate]",1.2
